Results on 16 compounds are retold here after PubChem BioAssay (NCI).

Among the test systems are SF-295 CNS; CCRF-CEM leukemia; MALME-3M melanoma; SF-268 CNS; HCC-2998 colon; NCI-H460 lung; NCI/ADR-RES ovarian; HL-60(TB) leukemia; T-47D breast; HOP-92 NSCLC.
Common to all, as to experiment: inhibition of tumour cell growth, NCI panel, 48 h

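A five-concentration, 48-hour dose response in 96-well plates underlies each endpoint, interpolated linearly between surrounding concentrations. At the TGI there is no net growth.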

For the compound `CCCc1cc(=O)oc2c3c(c4c(c12)OC(C)(C)C=C4)O[C@@H](C)[C@H](C)C3=O`, the TGI with SF-295 CNS is 31.7 µM; in the assay on CCRF-CEM leukemia it was 48.3 µM; with MALME-3M melanoma, 35.6 µM; in the assay on SF-268 CNS, 45.2 µM; in the assay with HCC-2998 colon, 34.5 µM; with NCI-H460 lung, 44.4 µM. Besides, the TGI came to 35.4 µM with NCI/ADR-RES ovarian and 33.4 µM with HL-60(TB) leukemia.

As for `NC(=O)N1N=C2c3ccccc3CC[C@@H]2C1c1ccccc1` (stereo not given in full), the TGI with SF-295 CNS, with CCRF-CEM leukemia, with MALME-3M melanoma, in the assay with SF-268 CNS, in the assay on HCC-2998 colon and in the assay on NCI-H460 lung was > 100 µM throughout. Besides, in the assay on HL-60(TB) leukemia, the TGI is > 100 µM.

With `CON(C)C(C#N)=C(C#N)C#N`, the TGI in the assay with SF-295 CNS, with CCRF-CEM leukemia, in the assay on MALME-3M melanoma, in the assay on SF-268 CNS, with HCC-2998 colon and in the assay with NCI-H460 lung was > 10 µM in each case. For the same compound, the TGI in the assay with NCI/ADR-RES ovarian, in the assay on T-47D breast and with HL-60(TB) leukemia was > 10 µM in each case.

On to `N#Cc1c(-c2ccco2)cc(-c2ccc(NCc3nc4ccccc4[nH]3)cc2)nc1N`, for which the TGI in the assay on SF-295 CNS was 52.3 µM; in the assay on HOP-92 NSCLC it was 67.4 µM; in the assay on CCRF-CEM leukemia, > 100 µM; in the assay with MALME-3M melanoma it was 51.5 µM; in the assay with SF-268 CNS it was > 100 µM; in the assay on HCC-2998 colon, 54.7 µM. Also, the TGI came to 43.3 µM in the assay with NCI-H460 lung and 47.3 µM in the assay with HL-60(TB) leukemia.

As to `COC(=O)C1=C(C(=O)OC)C2(OC(C)=O)c3ccccc3-c3ccccc3C12` (stereo not given), the TGI came to 33 µM in the assay with SF-295 CNS; 3.67 µM in the assay on HOP-92 NSCLC; 5.83 µM in the assay on MALME-3M melanoma; 22 µM in the assay on SF-268 CNS; 31 µM in the assay on HCC-2998 colon; 32.8 µM in the assay on NCI-H460 lung.

For `COc1cc(CCCOC(=O)/C=C/c2ccc(O)c(O)c2)cc(O)c1O`, the TGI was > 100 µM in the assay on SF-295 CNS; > 100 µM with CCRF-CEM leukemia; > 100 µM in the assay with MALME-3M melanoma; 84.5 µM in the assay on SF-268 CNS; > 100 µM in the assay with HCC-2998 colon; > 100 µM in the assay on NCI-H460 lung. Further, the TGI in the assay on T-47D breast was 74.6 µM; in the assay with HL-60(TB) leukemia, 84.1 µM.

On to `COC1=CC(=O)[C@H]2[C@H](C)C(c3ccccc3)[C@@]2(C)C1=O` (stereo not given in full), for which the TGI with SF-295 CNS, in the assay on HOP-92 NSCLC, in the assay with CCRF-CEM leukemia, in the assay with MALME-3M melanoma, with SF-268 CNS and in the assay with HCC-2998 colon was > 100 µM in each case. In addition, the TGI with NCI-H460 lung and with HL-60(TB) leukemia was > 100 µM in each case.

`CC1(C23CC4CC(CC(C4)C2)C3)n2c(=O)n(-c3ccccc3)c(=O)n2C1(C)C12CC3CC(CC(C3)C1)C2` (stereo not given): the TGI in the assay on SF-295 CNS, in the assay with HOP-92 NSCLC, in the assay with CCRF-CEM leukemia, in the assay on SF-268 CNS, in the assay on NCI-H460 lung and in the assay on NCI/ADR-RES ovarian was > 100 µM throughout. The TGI in the assay on T-47D breast and with HL-60(TB) leukemia was > 100 µM in each case.

Regarding `CCCC/C=C/C1Cc2ccccc2CN1S(=O)(=O)c1ccc(C)cc1` (stereo not given), the TGI with SF-295 CNS is 35.6 µM; in the assay on HOP-92 NSCLC, 8.82 µM; in the assay with CCRF-CEM leukemia, 42.3 µM; in the assay with MALME-3M melanoma it was > 100 µM; with SF-268 CNS, 30 µM; in the assay with HCC-2998 colon, 25.3 µM. In addition, the TGI in the assay with NCI-H460 lung was 31.3 µM; with HL-60(TB) leukemia, > 100 µM.

Turning to `CC(OC(=O)NCn1cc(-c2ccccc2)nn1)c1ccccc1` (stereo not given), the TGI was > 100 µM with SF-295 CNS; > 100 µM in the assay on HOP-92 NSCLC; > 100 µM in the assay on CCRF-CEM leukemia; 89.9 µM with MALME-3M melanoma; > 100 µM in the assay with HCC-2998 colon; > 100 µM with NCI-H460 lung. Further, the TGI is > 100 µM with NCI/ADR-RES ovarian and 75 µM in the assay with HL-60(TB) leukemia.

As for `O=C1CCC[C@]2(CCC[C@@H](O)C2)N1`, the TGI in the assay on SF-295 CNS, in the assay on CCRF-CEM leukemia, with MALME-3M melanoma, in the assay with SF-268 CNS, in the assay on HCC-2998 colon and in the assay on NCI-H460 lung was > 100 µM each time. The TGI in the assay on NCI/ADR-RES ovarian, with T-47D breast and in the assay with HL-60(TB) leukemia was > 100 µM in each case.

`COc1nc(SC)nc2c1cnn2C1OC(C(O)CO)C(OC)C1O` (stereo not given): the TGI in the assay with SF-295 CNS, with CCRF-CEM leukemia, with MALME-3M melanoma, in the assay with SF-268 CNS, in the assay with HCC-2998 colon and in the assay with NCI-H460 lung was > 100 µM in each case. Besides, the TGI with NCI/ADR-RES ovarian and in the assay with HL-60(TB) leukemia was > 100 µM throughout.

For the compound `CC(=O)O/N=C/c1ncccc1OC(C)=O`, the TGI with SF-295 CNS, with HOP-92 NSCLC, in the assay with CCRF-CEM leukemia, in the assay on MALME-3M melanoma, in the assay with SF-268 CNS and in the assay on NCI-H460 lung was > 100 µM in each case. Further, the TGI in the assay with HL-60(TB) leukemia is > 100 µM.

As for `Nc1nc(SCCNC(=O)CCc2ccc(O)cc2)nc2c1ncn2C1OC(CO)C(O)C1O` (stereo not given), the TGI in the assay on SF-295 CNS, in the assay with HOP-92 NSCLC, in the assay on CCRF-CEM leukemia, in the assay with MALME-3M melanoma, in the assay on SF-268 CNS and in the assay with HCC-2998 colon was > 203 µM in each case. The TGI in the assay with NCI-H460 lung and with HL-60(TB) leukemia was > 203 µM throughout.

For `COc1cc(C2C(Cl)C(=O)N2NC(=O)c2ccccc2O)ccc1O` (stereo not given), the TGI with SF-295 CNS, in the assay with CCRF-CEM leukemia, with MALME-3M melanoma, in the assay with SF-268 CNS, in the assay with HCC-2998 colon and with NCI-H460 lung was > 100 µM each time. Also, the TGI in the assay on HL-60(TB) leukemia was > 100 µM.

With `O=C(O)C1CCCN1Cc1cc2ccccc2c2ccccc12` (stereo not given), the TGI with SF-295 CNS, with HOP-92 NSCLC, with MALME-3M melanoma, in the assay on SF-268 CNS, with NCI-H460 lung and with NCI/ADR-RES ovarian was > 100 µM throughout. Further, the TGI with T-47D breast and in the assay with HL-60(TB) leukemia was > 100 µM in each case.
